Experimental data from patent US6048529A, “PVA or PEG conjugates of peptides for epitope-specific immunosuppression” (priority 1995, dated 2000).
Entries after “also recorded” stand apart in the source; their conditions may differ. Where a SMILES comes first, the peptide text is derived from it. Bridges are numbered along the chain shown (N, C = ends). Where no end group is shown, it is not given here.

Columns and labels:
[1] = in vivo; cited from earlier work
[2] = tested on: experimental autoimmune myasthenia gravis (EAMG); experiment: Electrophysiological EAMG: EMG during repetitive nerve stimulation after immunization with Torpedo AChR; type: in vivo, C57/BL6 mice; settings: for proportion of mice showing a decremental response greater than 10%: 5 μg i.p. at 11, 7 and 3 days before immunization with Torpedo AChR, EMG on days 38-39
Protocol: Six weeks old C57/BL6 mice were purchased from Charles River Breeding Laboratories (Wilmington, Mass.). Preimmune sera were obtained from the mice for use as controls in subsequent antibody binding assays. […] Then, on day 0, the mice were immunized subcutaneously in one hind footpad and intramuscularly in the same side shoulder with 20 μg of Torpedo AChR in 100 μl emulsion containing equal volumes of complete Freund's adjuvant and PBS. Thirty days later, the mice were immunized with a similar dose of the receptor in the opposite footpad and shoulder. On the 37th day, test bleeds were obtained from the mice for determination of the antibody titers. Electrophysiological studies were performed on the 38th and 39th days. Finally, the mice were sacrificed on the 40th day and lymph node cells were obtained for Electrophysiological Studies To document the electrophysiological evidence of EAMG, amplitudes of serial muscle action potentials were measured by electromyography (EMG) during the repetitive stimulation of the nerve in immunized mice, using the Mystro EMG system (TECA Corporation). A pair of wire electrodes were surgically implanted, encircling the sciatic nerve, two days before EMG. The nerve was stimulated through the implanted electrodes by 3 Hz trains of supramaximal electric current with a duration of 200 microseconds. The corresponding muscle action potentials were recorded with an electrode subcutaneously inserted over the gastrocnemius muscle. A reference electrode was placed at the ankle. Ether inhalation was used during the surgical and recording procedures. […] Students' t-test was used to analyze the differences of amplitude changes between the two groups. A typical myasthenic response of a greater than 10% decrement was considered to constitute an electrophysiological evidence of EAMG. The frequency of electrophysiological EAMG was calculated in each group and analyzed by chi-square test.

peptide α125-148 = experiment: Radioimmunoassay of anti-AChR antisera: antibody binding to peptide α125-148; type: in vivo, C57/BL6 mice; settings: for binding to peptide α125-148 of antibodies in pooled antisera at serial dilutions (in words): pooled antisera of each group, compared with the other groups
Protocol: (§1) Six weeks old C57/BL6 mice were purchased from Charles River Breeding Laboratories (Wilmington, Mass.). Preimmune sera were obtained from the mice for use as controls in subsequent antibody binding assays. After 2-weeks rest, the mice were divided into three groups which received, at eleven, seven and three days before immunization with AChR, an intraperitoneal injection (5 μg in 25 μl of PBS) of either the mPEG-(α125-148) conjugate (Group 1), mPEG-nonsense peptide conjugate (Group 2) or unaltered free peptide α125-148 (Group 3) (FIG. 5). Then, on day 0, the mice were immunized subcutaneously in one hind footpad and intramuscularly in the same side shoulder with 20 μg of Torpedo AChR in 100 μl emulsion containing equal volumes of complete Freund's adjuvant and PBS. Thirty days later, the mice were immunized with a similar dose of the receptor in the opposite footpad and shoulder. On the 37th day, test bleeds were obtained from the mice for determination of the antibody titers. Electrophysiological studies were performed on the 38th and 39th days. Finally, the mice were sacrificed on the 40th day and lymph node cells were obtained for
One mg of the synthetic peptide was dissolved in 50 μl dimethylformamide and then diluted with PBS to 25 μg/ml. A solution of Torpedo AChR in PBS was prepared to contain 2.5 μg/ml. Aliquots (50 μl/well) of the peptide or AChR solutions were added to a 96-well microtiter plate (Falcon Micro Test III flexible assay plate, Becton Dickinson, Oxcard, Calif.) and the plates were incubated at room temperature overnight. After washing 3 times with PBS, the plates were blocked with 0.25% bovine serum albumin (BSA) in PBS (50 μl/well) at 37° C. for 90 minutes. The plates were washed again 5 times with PBS and to each well was added 50 μl of the serum from AChR-immunized mice, pre-diluted with PBS containing 0.10% BSA, and the plates were covered and allowed to stand at room temperature overnight. After 5 washes with PBS, 50 μl of rabbit IgG antibodies (2.5 μg/ml) against mouse IgG and IgM (Accurate Chemical Scientific Corporation, Westbury, N.Y.) was added to each well and the plates were incubated at 37° C. for 3 hours. The plates were then washed 5 times with PBS and ^125 I-labeled protein A (2×10^5 cpm in 50 μl of PBS-0.1% BSA) was added to each well. The plates were incubated for 3 hours at room temperature, after which they were washed and the wells were cut out and counted for bound radioactivity. Pre-immune serum samples, obtained from the mice prior to any experimental treatments, were used as controls to correct for non-specific binding.

whole Torpedo AChR = experiment: Radioimmunoassay of anti-AChR antisera: antibody binding to whole AChR; type: in vivo, C57/BL6 mice; settings: anti-AChR antisera of pretreated mice, versus control groups
Protocol: as §1, with “Finally, the mice were sacrificed on the 40th day and lymph node cells were obtained for” left out
(§2) One mg of the synthetic peptide was dissolved in 50 μl dimethylformamide and then diluted with PBS to 25 μg/ml. […] The plates were incubated for 3 hours at room temperature, after which they were washed and the wells were cut out and counted for bound radioactivity. […]

peptide α45-60 = experiment: Radioimmunoassay of anti-AChR antisera: antibody binding to peptide α45-60; type: in vivo, C57/BL6 mice; settings: anti-AChR antisera of pretreated mice, versus control groups
Protocol: as §1, with “Finally, the mice were sacrificed on the 40th day and lymph node cells were obtained for” left out
as §2

peptide α182-198 = experiment: Radioimmunoassay of anti-AChR antisera: antibody binding to peptide α182-198; type: in vivo, C57/BL6 mice; settings: anti-AChR antisera of pretreated mice, versus control groups
Protocol: as §1, with “Finally, the mice were sacrificed on the 40th day and lymph node cells were obtained for” left out
as §2

lymph node cells (LNC) = experiment: T cell proliferation assay of lymph node cells from pretreated, AChR-primed mice; type: in vivo, C57/BL6 mice; settings: LNC 5×10^5 cells/well from pretreated mice after AChR immunization
Protocol: as §1, with “Thirty days later, the mice were immunized with a similar dose of the receptor in the opposite footpad and shoulder. On the 37th day, test bleeds were obtained from the mice for determination of the antibody titers. Electrophysiological studies were performed on the 38th and 39th days. Finally, the mice were sacrificed on the 40th day and lymph node cells were obtained for” left out
Lymph node cells (LNC) were harvested from the AChR-primed mice of each group ten or eleven days after the last AChR immunization. […] The number of viable cells was determined by vital staining with fluorescein diacetage (Rotman and Papermasters, 1966). […] After incubation for 3 days at 37° C. in a humidified air/CO2 (19:1) atmosphere, the cultures were pulsed (18 hr) with 1 μCi/well [^3 H]-thymidine (Research Products International, Mount Prospect, Ill,) and then harvested on to glass microfiber filters (Whatman, Clinton, N.J.) for counting of radioactivity by liquid scintillation.

[3] = anti-AChR antisera of pretreated mice

## monomethoxypolyethylene glycol [mPEG]
[1]
  harmful or toxic effects in humans (in words): does not seem to have any harmful or toxic effects

## CC[N+](C)(C)c1cccc(O)c1 [edrophonium chloride, reference compound]
[2]; EAMG-positive mouse with -33% decrement, 3 minutes after i.p. injection of 250 μg, 3 Hz stimulation
  decremental amplitude after edrophonium chloride: -13%
[2]; i.p. injection of 250 μg
  effect on the typical myasthenic decremental response (in words): reversible

## mPEG-(α125-148): monomethoxypolyethylene glycol (MW 5000) succinate coupled to the N-terminal α-NH2 of Torpedo californica AChR peptide α125-148 ({mPEG 5000 succinate}-KSYCEIIVTHFPFDQQNCTMKLGI; disulfide 4-18 (inferred); UniProt P02710 149-172, looked up, fragment)
[2]
  proportion of mice showing a decremental response greater than 10%: 20%
[2]; injection before immunization with whole Torpedo AChR
  effect on development of electrophysiological EAMG (in words): suppresses development of electrophysiological EAMG but the suppression was incomplete; also recorded: suppressed the development of electrophysiological EAMG; also recorded: suppressed the development of experimental autoimmune myasthenia gravis (EAMG)
Peptide α125-148; [3]
  antibody response against peptide α125-148 (in words): significantly decreased; also recorded: specific decrease
Peptide α125-148; anti-AChR antisera of pretreated mice, test bleed day 37
  antibody binding to peptide α125-148, mean net cpm±standard deviation: 1414 ±1801 cpm
Peptide α125-148
  binding to peptide α125-148 of antibodies in pooled antisera at serial dilutions (in words): considerably lower antibody binding; also recorded: consistently lower
Whole Torpedo AChR
  antibody response against whole AChR (in words): no significant suppression; also recorded: not significantly different; also recorded: not altered
Peptide α45-60
  antibody response against peptide α45-60 (in words): no significant suppression; also recorded: not significantly different
Peptide α182-198
  antibody response against peptide α182-198 (in words): no significant suppression; also recorded: not significantly different
Lymph node cells (LNC)
  T cell proliferative responses to peptide α125-148, AChR α-chain peptides or whole AChR (in words): did not show meaningful differences; also recorded: not detected; also recorded: no detectable changes

## CC[C@H](C)[C@H](NC(=O)CNC(=O)[C@H](CC(C)C)NC(=O)[C@H](CCCCN)NC(=O)[C@H](CCSC)NC(=O)[C@@H](NC(=O)[C@@H]1CSSC[C@H](NC(=O)[C@H](Cc2ccc(O)cc2)NC(=O)[C@H](CO)NC(=O)[C@@H](N)CCCCN)C(=O)N[C@@H](CCC(=O)O)C(=O)N[C@@H]([C@@H](C)CC)C(=O)N[C@@H]([C@@H](C)CC)C(=O)N[C@@H](C(C)C)C(=O)N[C@@H]([C@@H](C)O)C(=O)N[C@@H](Cc2c[nH]cn2)C(=O)N[C@@H](Cc2ccccc2)C(=O)N2CCC[C@H]2C(=O)N[C@@H](Cc2ccccc2)C(=O)N[C@@H](CC(=O)O)C(=O)N[C@@H](CCC(N)=O)C(=O)N[C@@H](CCC(N)=O)C(=O)N[C@@H](CC(N)=O)C(=O)N1)[C@@H](C)O)C(=O)O [free α125-148, reference compound] (H-KSYCEIIVTHFPFDQQNCTMKLGI-OH; disulfide 4-18)
[2]
  proportion of mice showing a decremental response greater than 10%: 56%
Peptide α125-148; [3]
  antibody response against peptide α125-148 (in words): no decrease
Peptide α125-148
  binding to peptide α125-148 of antibodies in pooled antisera at serial dilutions (in words): consistently greater than the other two controls
